Test results: patent US10150751B2 (Merck Sharp & Dohme Corp., priority 2014, dated 2018)

What was measured:
[1] = biological target: hOX1R (orexin-1 receptor) (Homo sapiens, UniProt O43613); assay: FLIPR Ca2+ flux assay, hOX1R; format: cell-based; conditions: CHO cells expressing the orexin-1 receptor (head: hOX1R; method: rat); agonist 70 pM Ala-6,12 orexin-A
[2] = biological target: human orexin-2 receptor (Homo sapiens (Human), UniProt O43614); assay: FLIPR Ca2+ flux assay, hOX2R; format: cell-based; conditions: CHO cells expressing the human orexin-2 receptor; agonist 70 pM Ala-6,12 orexin-A
Sequence of human orexin-2 receptor (O43614 whole entry): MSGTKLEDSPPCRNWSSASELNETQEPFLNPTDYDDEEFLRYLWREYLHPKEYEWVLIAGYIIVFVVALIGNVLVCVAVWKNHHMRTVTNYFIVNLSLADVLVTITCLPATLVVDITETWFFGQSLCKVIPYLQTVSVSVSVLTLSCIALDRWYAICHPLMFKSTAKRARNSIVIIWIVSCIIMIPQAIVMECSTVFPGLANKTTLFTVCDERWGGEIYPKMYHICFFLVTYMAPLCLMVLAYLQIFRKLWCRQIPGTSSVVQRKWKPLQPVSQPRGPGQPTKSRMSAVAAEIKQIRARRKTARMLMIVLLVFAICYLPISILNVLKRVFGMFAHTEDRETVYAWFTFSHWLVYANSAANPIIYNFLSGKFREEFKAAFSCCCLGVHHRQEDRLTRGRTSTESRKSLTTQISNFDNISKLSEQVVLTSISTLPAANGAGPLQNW
Experimental: The utility of the compounds in accordance with the present invention as orexin receptor OX1R and/or OX2R antagonists may be readily determined without undue experimentation by methodology well known in the art, including the “FLIPR Ca^2+ Flux Assay” (Okumura et al., Biochem. Biophys. Res. Comm. 280:976-981, 2001). In a typical experiment the OX1 and OX2 receptor antagonistic activity of the compounds of the present invention was determined in accordance with the following experimental method. For intracellular calcium measurements, Chinese hamster ovary (CHO) cells expressing the rat orexin-1 receptor or the human orexin-2 receptor, are grown in Iscove's modified DMEM containing 2 mM L-glutamine, […], 1% hypoxanthine-thymidine supplement, 100 U/ml penicillin, 100 μg/ml streptomycin and 10% heat-inactivated fetal calf serum (FCS). The cells are seeded at 20,000 cells/well into Becton-Dickinson black 384-well clear bottom sterile plates coated with poly-D-lysine. All reagents were from GIBCO-Invitrogen Corp. The seeded plates are incubated overnight at 37° C. and 5% CO2. Ala-6,12 human orexin-A as the agonist is prepared as a 1 mM stock solution in 1% bovine serum albumin (BSA) and diluted in assay buffer (HBSS containing 20 mM HEPES, 0.1% BSA and 2.5 mM probenecid, pH7.4) for use in the assay at a final concentration of 70pM. Test compounds are prepared as 10 mM stock solution in DMSO, then diluted in 384-well plates, first in DMSO, then assay buffer. On the day of the assay, cells are washed 3 times with 100 μl assay buffer and then incubated for 60 min (37° C., 5% CO2) in 60 μl assay buffer containing 1 μM Fluo-4AM ester, 0.02% pluronic acid, and 1% BSA. The dye loading solution is then aspirated and cells are washed 3 times with 100 μl assay buffer. 30 μl of that same buffer is left in each well. Within the Fluorescent Imaging Plate Reader (FLIPR, Molecular Devices), test compounds are added to the plate in a volume of 25 μl, incubated for 5 min and finally 25 μl of agonist is added. Fluorescence is measured for each well at 1 second intervals for 5 minutes and the height of each fluorescence peak is compared to the height of the fluorescence peak induced by 70 pM Ala-6,12 orexin-A with buffer in place of antagonist. For each antagonist, IC50 value (the concentration of compound needed to inhibit 50% of the agonist response) is determined. Alternatively, compound potency can be assessed by a radioligand binding assay (described in Bergman et. al. Bioorg. Med. Chem. Lett. 2008, 18, 1425-1430) in which the inhibition constant (Ki) is determined in membranes prepared from CHO cells expressing either the OX1 or OX2 receptor. The intrinsic orexin receptor antagonist activity of a compound which may be used in the present invention may be determined by these assays.

| SMILES | IC50 [1] | IC50 [2] |
| --- | --- | --- |
| C[C@@H]1C[C@@H](Nc2cc(OCC(F)F)ccn2)CN1C(=O)c1ccccc1C1(C#N)CC1 [Example 2, 1-(2-((2R,4R)-4-((4-(2,2-difluoroethoxy)pyridin-2-yl)amino)-2-methylpyrrolidine-1-carbonyl)phenyl)cyclopropanecarbonitrile] | 10000 nM | 65.1 nM |
| C[C@@H]1C[C@@H](Nc2cc(OCC(F)F)ccn2)CN1C(=O)c1ccccc1-n1ncnn1 [Example 3, (2-(2H-tetrazol-2-yl)phenyl)((2R,4R)-4-((4-(2,2-difluoroethoxy)pyridin-2-yl)amino)-2-methylpyrrolidin-1-yl)methanone] | > 10000 nM | 367 nM |
| C[C@@H]1C[C@@H](Nc2cc(OCC(F)F)ccn2)CN1C(=O)c1ccsc1-c1ncccn1 [Example 4] | > 10000 nM | 520 nM |
| C[C@@H]1C[C@@H](Nc2cc(OCC(F)F)ccn2)CN1C(=O)c1ccsc1-n1nccn1 [Example 5] | > 10000 nM | 625 nM |
| CCOc1ncccc1C(=O)N1C[C@H](Nc2cc(OCC(F)F)ccn2)C[C@H]1C [Example 6, ((2R,4R)-4-((4-(2,2-difluoroethoxy)pyridin-2-yl)amino)-2-methylpyrrolidin-1-yl)(2-ethoxypyridin-3-yl)methanone] | > 10000 nM | 989 nM |
| C[C@@H]1C[C@@H](Nc2cc(OCC(F)F)ccn2)CN1C(=O)c1cccc2c1CCC2 [Example 7, ((2R,4R)-4-((4-(2,2-difluoroethoxy)pyridin-2-yl)amino)-2-methylpyrrolidin-1-yl)(2,3-dihydro-1H-inden-4-yl)methanone] | > 10000 nM | 2000 nM |
| C[C@@H]1C[C@@H](Nc2cc(C(F)F)ccn2)CN1C(=O)c1ccccc1-n1nccn1 [Example 9, (2-(2H-1,2,3-triazol-2-yl)phenyl)((2R,4R)-4-((4-(difluoromethyl)pyridin-2-yl)amino)-2-methylpyrrolidin-1-yl)methanone] | 1630 nM | 13.6 nM |
| C[C@@H]1C[C@@H](Nc2ccc(F)cn2)CN1C(=O)c1ccccc1-n1nccn1 [Example 11, (2-(2H-1,2,3-triazol-2-yl)phenyl)((2R,4R)-4-((5-fluoropyridin-2-yl)amino)-2-methylpyrrolidin-1-yl)methanone] | 6290 nM | 175 nM |
| C[C@@H]1C[C@@H](Nc2nccc3ccccc23)CN1C(=O)c1ccccc1-n1nccn1 [Example 12, (2-(2H-1,2,3-triazol-2-yl)phenyl)((2R,4R)-4-(isoquinolin-1-ylamino)-2-methylpyrrolidin-1-yl)methanone] | 257 nM | 15.3 nM |

Next, values leading:

| IC50 [1] | IC50 [2] | SMILES |
| --- | --- | --- |
| 1090 nM | 26.3 nM | C[C@@H]1C[C@@H](Nc2cc(C(F)(F)F)ccn2)CN1C(=O)c1ccccc1-n1nccn1 [Example 14, (2-(2H-1,2,3-triazol-2-yl)phenyl)((2R,4R)-2-methyl-4-((4-(trifluoromethyl)pyridin-2-yl)amino)pyrrolidin-1-yl)methanone] |
| 1160 nM | 23.1 nM | C[C@@H]1C[C@@H](Nc2cc(Cl)ccn2)CN1C(=O)c1ccccc1-n1nccn1 [Example 15, (2-(2H-1,2,3-triazol-2-yl)phenyl)((2R,4R)-4-((4-chloropyridin-2-yl)amino)-2-methylpyrrolidin-1-yl)methanone] |
| 4070 nM | 75.9 nM | Cc1ccnc(N[C@@H]2C[C@@H](C)N(C(=O)c3ccccc3-n3nccn3)C2)c1 [Example 16, (2-(2H-1,2,3-triazol-2-yl)phenyl)((2R,4R)-2-methyl-4-((4-methylpyridin-2-yl)amino)pyrrolidin-1-yl)methanone] |
| > 10000 nM | 119 nM | C[C@@H]1C[C@@H](Nc2cc(F)ccn2)CN1C(=O)c1ccccc1-n1nccn1 [Example 17, (2-(2H-1,2,3-triazol-2-yl)phenyl)((2R,4R)-4-((4-fluoropyridin-2-yl)amino)-2-methylpyrrolidin-1-yl)methanone] |
